# In US20040152903A1, “6-chloro-3-pyridylmethylpropylamine derivatives, preparation process thereof and bactericides” (priority 2004, published 2004):
# Tests used:
# wheat powdery mildew [1] = assay: Test of control effect on wheat powdery mildew; format: in vivo; set-up: Control Value: scale not given here; settings: wettable powder 125 mg/l, 100 liters/10 a, wheat seedlings (Nourin 64), examined 9th to 14th day after inoculation
# Method: (Test of Control Effect on Wheat Powdery Mildew) Wettable powders were prepared from compounds of the present invention I-1 to I-27 and comparative compounds (a) to (d), (m-1) and (m-3). The obtained wettable powder was diluted and suspended with water to provide the predetermined concentration (125 mg/l), and was sprinkled onto seedlings of wheat (variety: “Nourin 64”) at the first to the second leaf period which were cultivated using square plastic pots (size: 6.4 cm×6.4 cm) in a rate of 100 liters/10 a (ares). After drying the sprinkled leaves with air, a suspension of wheat powdery mildew spores taken from infected leaves was inoculated by spraying onto the sprinkled leaves. They were supervised in a green house (temperature: 20 to 24° C., relative humidity: 20 to 70 RH). On the 9th to 14th day after the inoculation, the infection degree was examined according to the following scale and the control value of each compound was calculated by the following calculation equation 1. [table]
# cucumber powdery mildew = assay: Test of control effect on cucumber powdery mildew; format: in vivo; settings: wettable powder 100 mg/l, 100 liters/10 a, cucumber (Sagamihanpakufushinari), examined 9th to 14th day after inoculation
# Method: (Test of Control Effect on Cucumber Powdery Mildew) The wettable powders formulated by using each of the compounds I-1 to 27 according to the present invention and the comparative compounds (a) to (d), (m-1) and (m-3) were each diluted and suspended with water to a predetermined concentration (100 mg/l), the suspension was sprinkled over the first to the second leaf period cucumbers (variety: “[…]”) cultivated by using a square plastic pot (size: 6.4 cm×6.4 cm) in a rate of 100 liters/10 a (ares). After the sprinkled leaves were air-dried, the spores were inoculated over the leaves by sprinkling the same with a brush from an infected leaf, a disease was contracted in a glass house (temperature: 20 to 24° C., relative humidity: 20 to 70 RH). On the 9th to 14th day after the inoculation, the infection degree was examined according to the following scale and the control value of each compound was calculated by the following calculation equation 2: (Examination Scale) [table]
# Botrytis cinerea = assay: Antifungal activity test (PDA plate, hypha extension inhibition); format: cell-based; settings: 1.6 ppm in PDA culture medium
# Method: (§1) (Antifungal Activity Test against Various Pathogenic Fungi) For each of the compounds I-1 to 27 of the present invention and the comparative compounds (a) to (d), (m-1) and (m-3), 20 mg was weighed and dissolved in 2 ml of dimethylsulfoxide, and a double dilution row in 10 steps was prepared by further using dimethylsulfoxide. A 0.6 ml portion of these solutions was each added to 60 ml of a PDA culture medium (potato-dextrose-agar culture medium) at about 60° C., they were well mixed in a 100 ml Erlenmeyer flask, the solution was poured into a schale and was solidified, the plate culture media containing the compounds according to the present invention with final concentrations of 100, 50.0, 25.0, 12.5, 6.3, 3.2, 1.6, 0.8, 0.4 and 0.2 mg/l were prepared. On the other hand, the specimen bacteria cultured on the plate culture media beforehand was punched by a 4 mm diameter cork borer, and was inoculated on the plate culture media containing the aforementioned chemicals. After the inoculation, the bacteria were cultured at the optimum growth temperature of each bacterium for 1 to 7 days (for this optimum growth temperature, LIST OF CULTURES 1996 Microorganisms 10th edition published by Fermentation Research Institute (Foundation) can be referred to.), and the growth of the bacteria was measured by the diameter of a colony. […] R=100(dc−dt)/dc (Equation 3) [wherein each symbol is shown as follows: R=Hypha extension inhibition rate (%), dc=Diameter of colony on no-treated plate, dt=Diameter of colony on chemical-treated plate.] The results obtained above was evaluated in 5 steps in accordance with the following examination scale. <Growth Inhibition> 5: Hypha extension inhibition rate of 90% or more 4: Hypha extension inhibition rate of from 70% to less than 90% 3: […] 2: […] In addition, the abbreviations in Table 10 are as follows: B.c: Botrytis cinerea
# Septoria tritici = assay: as above; format: cell-based; settings: 100 ppm in PDA culture medium
# Method: as §1, with “S.t: Septoria tritici” for “B.c: Botrytis cinerea”
# wheat powdery mildew [2] = assay: Permeable mobility fungicidal effect test in leaf section of wheat powdery mildew; format: in vivo; settings: length of non-contracted area relative to compound (m-2); 200 mg/l, 0.5 μl applied to wheat leaf (Abukumawase)
# Method: (Permeable Mobility Fungicidal Effect Test in Leaf Section of Wheat Powdery Mildew) In the test example 4, permeable mobility fungicidal effect test was performed on the leaf section of wheat powdery mildew with regard to the compounds I-1 to 27 according to the present invention and the comparative compounds (a) to (d), and (m-1) to (m-3) with the method described later. <Test Method> The compound in the form of a wettable powder obtained by Formulation 2 or the like was diluted and suspended with water to a predetermined concentration (200 mg/l), and 0.5 μl of the suspension was applied to a 2 to 3 cm leaf portion from the root of the three leaves of the 4th to 4.5th leaf period wheat (variety: Abukumawase) cultured by using a square plastic pot (size: 6.4 cm×6.4 cm). After these wheat leaves were subject to still standing in a glass house (temperature: 20 to 24° C., relative humidity: 20 to 70 RH) for one day, the spores of wheat powdery mildew were inoculated over the leaves by sprinkling the same with a brush from an infected leaf, a disease was contracted in the same glass house. The length of a non-contracted area generated from the applied portion to the direction of the leaf top was measured, and a relative mobility to the compound (m-2) was calculated with the following calculation […] by using the comparative compound (m-2) as a standard compound. Relative mobility=(Length of non-contracted area in each chemical section (cm)/Length of non-contracted area of compound (m-2) (cm)) (Equation 4)
# Leptosphaeria nodorum = assay: Antifungal activity test (PDA plate, hypha extension inhibition); format: cell-based; settings: 0.8 ppm in PDA culture medium
# Method: as §1, with “L.n: Leptosphaeria nodorum” for “B.c: Botrytis cinerea”
Structure (SMILES),Control Value (wheat powdery mildew [1]),Control Value (cucumber powdery mildew),Growth Inhibition B.c (1.6) (Botrytis cinerea),Growth Inhibition S.t (100) (Septoria tritici),Relative Mobility (wheat powdery mildew [2]),Growth Inhibition L.n (0.8) (Leptosphaeria nodorum)
CC(Cc1ccc(C(F)(F)F)cc1F)CN(C)Cc1ccc(Cl)nc1 (stereo not shown) [Compound I-8],100,100,4 (Hypha extension inhibition rate of from 70% to less than 90%),4 (Hypha extension inhibition rate of from 70% to less than 90%),5,
CC(Cc1ccc(F)c(OC(F)(F)F)c1)CN(C)Cc1ccc(Cl)nc1 (stereo not shown) [Compound I-16],100,100,4 (Hypha extension inhibition rate of from 70% to less than 90%),,9,5 (Hypha extension inhibition rate of 90% or more)
